Results reported in patent publication US20250213575A1, “8-HETEROCYCLIC-3-(PHENYLSULFONYL)-[1,2,3]TRIAZOLO[1,5A]QUINAZOLIN-5(4H)-ONE DERIVATIVES AS ANTI-BACTERIALS” (priority 2022, published 2025).

How the values were obtained:
[1] = biological target: AgrA (Staphylococcus aureus, UniProt P0A0I7); assay: cell-based; design: species or system S. aureus USA300 strain UAMS-1625; conditions: for Ratio IC50 (in presence of HSA)/IC50 (in absence of HSA): 40 mg/mL HSA vs without HSA
[2] = system: MRSA USA300 type strain; conditions: mice, applied multiple times; cited from earlier work
[3] = system: red blood cell (RBC); conditions: cited from earlier work
[4] = system: S. aureus; conditions: after multiple passages with Savirin; cited from earlier work
[5] = IC50 at 40 mg/mL HSA, LB medium supplemented with 40 mg/mL human serum albumin
[6] = IC50 without HSA, LB medium, without HSA

Chain of AgrA (P0A0I7 whole entry): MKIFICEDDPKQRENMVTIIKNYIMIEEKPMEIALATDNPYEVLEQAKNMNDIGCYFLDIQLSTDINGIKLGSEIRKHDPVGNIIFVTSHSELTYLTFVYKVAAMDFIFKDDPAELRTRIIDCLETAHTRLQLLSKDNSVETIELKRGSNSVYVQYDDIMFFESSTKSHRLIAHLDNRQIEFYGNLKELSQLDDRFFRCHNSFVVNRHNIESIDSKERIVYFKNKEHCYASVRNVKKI

Compound: Cc1ccc(S(=O)(=O)c2nnn3c2[nH]c(=O)c2ccc(N4CCC5C(CCN5C)C4)cc23)c(C)c1 (stereo not shown) [Compound 39, 3-(2,4-dimethylbenzenesulfonyl)-8-{1-methyl-octahydro-1H-pyrrolo[3,2-c]pyridin-5-yl}-4H,5H-[1,2,3]triazolo[1,5-a]quinazolin-5-one]
- Ratio IC50 (in presence of HSA)/IC50 (in absence of HSA) [1]: +++ (ratio ≤ 25)
- IC50 [1, 5]: 20.3 to 102 µM
- IC50 [1, 6]: < 2.03 µM

Compound: Cc1ccc(S(=O)(=O)c2nnn3c2[nH]c(=O)c2ccc(N4C[C@H]5CNC[C@H]5C4)cc23)c(C)c1 [Compound 40, 8-[(3aR,6aS)-octahydropyrrolo[3,4-c]pyrrol-2-yl]-3-(2,4-dimethylbenzenesulfonyl)-4H,5H-[1,2,3]triazolo[1,5-a]quinazolin-5-one]
- Ratio IC50 (in presence of HSA)/IC50 (in absence of HSA) [1]: +++ (ratio ≤ 25)
- IC50 [1, 5]: 21.5 to 108 µM
- IC50 [1, 6]: 2.15 to 10.8 µM

Compound: Cc1ccc(S(=O)(=O)c2nnn3c2[nH]c(=O)c2ccc(N4CCN(C(C)(C)C)CC4)cc23)c(C)c1 [Compound 41, 8-(4-tert-butylpiperazin-1-yl)-3-(2,4-dimethylbenzenesulfonyl)-4H,5H-[1,2,3]triazolo[1,5-a]quinazolin-5-one]
- Ratio IC50 (in presence of HSA)/IC50 (in absence of HSA) [1]: +++ (ratio ≤ 25)
- IC50 [1, 5]: 20.2 to 101 µM
- IC50 [1, 6]: 2.02 to 10.1 µM

Compound: COCCN1CCN(c2ccc3c(=O)[nH]c4c(S(=O)(=O)c5ccc(C)cc5C)nnn4c3c2)CC1 [Compound 42, 3-(2,4-dimethylbenzenesulfonyl)-8-[4-(2-methoxyethyl)piperazin-1-yl]-4H,5H-[1,2,3]triazolo[1,5-a]quinazolin-5-one]
- Ratio IC50 (in presence of HSA)/IC50 (in absence of HSA) [1]: +++ (ratio ≤ 25)
- IC50 [1, 5]: 20.1 to 101 µM
- IC50 [1, 6]: 2.01 to 10.1 µM

Compound: Cc1ccc(S(=O)(=O)c2nnn3c2[nH]c(=O)c2ccc(N4CCN(CCO)CC4)cc23)c(C)c1 [Compound 43, 3-(2,4-dimethylbenzenesulfonyl)-8-[4-(2-hydroxyethyl)piperazin-1-yl]-4H,5H-[1,2,3]triazolo[1,5-a]quinazolin-5-one]
- Ratio IC50 (in presence of HSA)/IC50 (in absence of HSA) [1]: ++ (ratio ≤ 125)
- IC50 [1, 5]: 20.7 to 104 µM
- IC50 [1, 6]: < 2.07 µM

Compound: Cc1ccc(S(=O)(=O)c2nnn3c2[nH]c(=O)c2ccc(N4CCN(C(C)CO)CC4)cc23)c(C)c1 (stereo not shown) [Compound 44, 3-(2,4-dimethylbenzenesulfonyl)-8-[4-(1-hydroxypropan-2-yl)piperazin-1-yl]-4H,5H-[1,2,3]triazolo[1,5-a]quinazolin-5-one]
- Ratio IC50 (in presence of HSA)/IC50 (in absence of HSA) [1]: ++ (ratio ≤ 125)
- IC50 [1, 5]: 20.1 to 101 µM
- IC50 [1, 6]: < 2.01 µM

Compound: Cc1ccc(S(=O)(=O)c2nnn3c2[nH]c(=O)c2ccc(N4CCN(CCOCCO)CC4)cc23)c(C)c1 [Compound 45, 3-(2,4-dimethylbenzenesulfonyl)-8-{4-[2-(2-hydroxyethoxy)ethyl]piperazin-1-yl}-4H,5H-[1,2,3]triazolo[1,5-a]quinazolin-5-one]
- Ratio IC50 (in presence of HSA)/IC50 (in absence of HSA) [1]: +++ (ratio ≤ 25)
- IC50 [1, 5]: 19 to 94.9 µM
- IC50 [1, 6]: < 1.9 µM

Compound: Cc1ccc(S(=O)(=O)c2nnn3c2[nH]c(=O)c2ccc(N4CCCN(CCO)CC4)cc23)c(C)c1 [Compound 46, 3-(2,4-dimethylbenzenesulfonyl)-8-[4-(2-hydroxyethyl)-1,4-diazepan-1-yl]-4H,5H-[1,2,3]triazolo[1,5-a]quinazolin-5-one]
- Ratio IC50 (in presence of HSA)/IC50 (in absence of HSA) [1]: +++ (ratio ≤ 25)
- IC50 [1, 5]: 20.1 to 101 µM
- IC50 [1, 6]: < 2.01 µM

Compound: Cc1ccc(S(=O)(=O)c2nnn3c2[nH]c(=O)c2ccc(N4CCCNCC4)cc23)c(C)c1 [Compound 47, 8-(1,4-diazepan-1-yl)-3-(2,4-dimethylbenzenesulfonyl)-4H,5H-[1,2,3]triazolo[1,5-a]quinazolin-5-one]
- Ratio IC50 (in presence of HSA)/IC50 (in absence of HSA) [1]: +++ (ratio ≤ 25)
- IC50 [1, 5]: < 22.1 µM
- IC50 [1, 6]: < 2.21 µM

Compound: Cc1ccc(S(=O)(=O)c2nnn3c2[nH]c(=O)c2ccc(N4CCCOCC4)cc23)c(C)c1 [Compound 48, 3-(2,4-dimethylbenzenesulfonyl)-8-(1,4-oxazepan-4-yl)-4H,5H-[1,2,3]triazolo[1,5-a]quinazolin-5-one]
- Ratio IC50 (in presence of HSA)/IC50 (in absence of HSA) [1]: ++ (ratio ≤ 125)
- IC50 [1, 5]: 22 to 110 µM
- IC50 [1, 6]: < 2.2 µM

Compound: Cc1ccc(S(=O)(=O)c2nnn3c2[nH]c(=O)c2ccc(N4CCCN(C)CC4)cc23)c(C)c1 [Compound 49, 3-(2,4-dimethylbenzenesulfonyl)-8-(4-methyl-1,4-diazepan-1-yl)-4H,5H-[1,2,3]triazolo[1,5-a]quinazolin-5-one]
- Ratio IC50 (in presence of HSA)/IC50 (in absence of HSA) [1]: +++ (ratio ≤ 25)
- IC50 [1, 5]: 21.4 to 107 µM
- IC50 [1, 6]: 2.14 to 10.7 µM

Compound: Cc1ccc(S(=O)(=O)c2nnn3c2[nH]c(=O)c2ccc(N4CC5CCC(C4)N5)cc23)c(C)c1 [Compound 50]
- IC50 [1, 5]: < 21.5 µM
- IC50 [1, 6]: 2.15 to 10.8 µM

Compound: Cc1ccc(S(=O)(=O)c2nnn3c2[nH]c(=O)c2ccc(N4CCN(CC(F)(F)F)CC4)cc23)c(C)c1 [Compound 51, 3-(2,4-dimethylbenzenesulfonyl)-8-[4-(2,2,2-trifluoroethyl)piperazin-1-yl]-4H,5H-[1,2,3]triazolo[1,5-a]quinazolin-5-one]
- Ratio IC50 (in presence of HSA)/IC50 (in absence of HSA) [1]: ++ (ratio ≤ 125)
- IC50 [1, 5]: 19.2 to 96.1 µM
- IC50 [1, 6]: < 1.92 µM

Compound: Cc1ccc(S(=O)(=O)c2nnn3c2[nH]c(=O)c2ccc(N4CCN(C(=O)C(C)C)CC4)cc23)c(C)c1 [Compound 52, 3-(2,4-dimethylbenzenesulfonyl)-8-[4-(2-methylpropanoyl)piperazin-1-yl]-4H,5H-[1,2,3]triazolo[1,5-a]quinazolin-5-one]
- Ratio IC50 (in presence of HSA)/IC50 (in absence of HSA) [1]: +++ (ratio ≤ 25)
- IC50 [1, 5]: 19.7 to 98.3 µM
- IC50 [1, 6]: < 1.97 µM

Compound: Cc1ccc(S(=O)(=O)c2nnn3c2[nH]c(=O)c2ccc(N4CCN(C)C(=O)C4)cc23)c(C)c1 [Compound 53, 4-[3-(2,4-dimethylbenzenesulfonyl)-5-oxo-4H,5H-[1,2,3]triazolo[1,5-a]quinazolin-8-yl]-1-methylpiperazin-2-one]
- Ratio IC50 (in presence of HSA)/IC50 (in absence of HSA) [1]: ++ (ratio ≤ 125)
- IC50 [1, 5]: 21.4 to 107 µM
- IC50 [1, 6]: < 2.14 µM

Compound: Cc1ccc(S(=O)(=O)c2nnn3c2[nH]c(=O)c2ccc(N4CCn5ccnc5C4)cc23)c(C)c1 [Compound 54, 3-(2,4-dimethylbenzenesulfonyl)-8-{5H,6H,7H,8H-imidazo[1,2-a]pyrazin-7-yl}-4H,5H-[1,2,3]triazolo[1,5-a]quinazolin-5-one]
- Ratio IC50 (in presence of HSA)/IC50 (in absence of HSA) [1]: ++ (ratio ≤ 125)
- IC50 [1, 5]: 21 to 105 µM
- IC50 [1, 6]: 2.1 to 10.5 µM

Compound: Cc1ccc(S(=O)(=O)c2nnn3c2[nH]c(=O)c2ccc(N4CCN(C5COC5)CC4)cc23)c(C)c1 [Compound 55, 3-(2,4-dimethylbenzenesulfonyl)-8-[4-(oxetan-3-yl)piperazin-1-yl]-4H,5H-[1,2,3]triazolo[1,5-a]quinazolin-5-one]
- Ratio IC50 (in presence of HSA)/IC50 (in absence of HSA) [1]: ++ (ratio ≤ 125)
- IC50 [1, 5]: < 20.2 µM
- IC50 [1, 6]: < 2.02 µM

Compound: Cc1ccc(S(=O)(=O)c2n[nH]n3c2nc(=O)c2ccc(N4CCN(C5CCOCC5)CC4)cc23)c(C)c1 [Compound 56, 3-(2,4-dimethylbenzenesulfonyl)-8-[4-(oxan-4-yl)piperazin-1-yl]-1H,5H-[1,2,3]triazolo[1,5-a]quinazolin-5-one]
- Ratio IC50 (in presence of HSA)/IC50 (in absence of HSA) [1]: +++ (ratio ≤ 25)
- IC50 [1, 5]: 19.1 to 95.7 µM
- IC50 [1, 6]: < 1.91 µM

Compound: Cc1ccc(S(=O)(=O)c2nnn3c2[nH]c(=O)c2ccc(N4CCN(CCN)CC4)cc23)c(C)c1 [Compound 57, 8-[4-(2-aminoethyl)piperazin-1-yl]-3-(2,4-dimethylbenzenesulfonyl)-4H,5H-[1,2,3]triazolo[1,5-a]quinazolin-5-one]
- Ratio IC50 (in presence of HSA)/IC50 (in absence of HSA) [1]: +++ (ratio ≤ 25)
- IC50 [1, 5]: 20.8 to 104 µM
- IC50 [1, 6]: 2.08 to 10.4 µM

Compound: CCN(CC)CCC(=O)N1CCN(c2ccc3c(=O)[nH]c4c(S(=O)(=O)c5ccc(C)cc5C)nnn4c3c2)CC1 [Compound 58, 8-{4-[3-(diethylamino)propanoyl]piperazin-1-yl}-3-(2,4-dimethylbenzenesulfonyl)-4H,5H-[1,2,3]triazolo[1,5-a]quinazolin-5-one]
- IC50 [1, 5]: 17.7 to 88.4 µM
- IC50 [1, 6]: 1.77 to 8.84 µM

Compound: Cc1ccc(S(=O)(=O)c2n[nH]n3c2nc(=O)c2ccc(N4CCN(C5CCN(C)CC5)CC4)cc23)c(C)c1 [Compound 59, 3-(2,4-dimethylbenzenesulfonyl)-8-[4-(1-methylpiperidin-4-yl)piperazin-1-yl]-1H,5H-[1,2,3]triazolo[1,5-a]quinazolin-5-one]
- Ratio IC50 (in presence of HSA)/IC50 (in absence of HSA) [1]: +++ (ratio ≤ 25)
- IC50 [1, 5]: 18.7 to 93.3 µM
- IC50 [1, 6]: 1.87 to 9.33 µM

Compound: Cc1ccc(S(=O)(=O)c2nnn3c2[nH]c(=O)c2ccc(N4CCN(C5CC5)CC4)cc23)c(C)c1 [Compound 60, 8-(4-cyclopropylpiperazin-1-yl)-3-(2,4-dimethylbenzenesulfonyl)-4H,5H-[1,2,3]triazolo[1,5-a]quinazolin-5-one]
- Ratio IC50 (in presence of HSA)/IC50 (in absence of HSA) [1]: ++ (ratio ≤ 125)
- IC50 [1, 5]: 20.9 to 104 µM
- IC50 [1, 6]: < 2.09 µM

Compound: Cc1ccc(S(=O)(=O)c2nnn3c2[nH]c(=O)c2ccc(N4CC5(CC(C(=O)O)C5)C4)cc23)c(C)c1 [Compound 63, 2-[3-(2,4-Dimethyl-benzenesulfonyl)-5-oxo-4,5-dihydro-[1,2,3]triazolo[1,5-a]quinazolin-8-yl]-2-aza-spiro[3.3]heptane-6-carboxylic acid]
- Ratio IC50 (in presence of HSA)/IC50 (in absence of HSA) [1]: +++ (ratio ≤ 25)
- IC50 [1, 5]: < 20.3 µM
- IC50 [1, 6]: < 2.03 µM

Compound: Cc1ccc(S(=O)(=O)c2nnn3c2[nH]c(=O)c2ccc(N4CCC(C(=O)O)CC4)cc23)c(C)c1 [Compound 64, 1-[3-(2,4-Dimethyl-benzenesulfonyl)-5-oxo-4,5-dihydro-[1,2,3]triazolo[1,5-a]quinazolin-8-yl]-piperidine-4-carboxylic acid]
- Ratio IC50 (in presence of HSA)/IC50 (in absence of HSA) [1]: +++ (ratio ≤ 25)
- IC50 [1, 5]: < 20.8 µM
- IC50 [1, 6]: < 2.08 µM

Compound: CC(C)c1ccc(S(=O)(=O)c2nnn3c2nc(O)c2ccccc23)cc1 [Savirin]
- abscess size and dermonecrosis [2]: significant reduction
- exotoxin-induced red blood cell (RBC) lysis [3]: inhibited
- resistance development [4]: No resistance was developed
